{"source": "patent EP3892267A1", "about": "“C[…] FOR LYMPHOMA” (Université de Paris, priority 2020, dated 2021)", "key": {"MD901 cell line": {"system": "MD901 cell line", "assay": "Immunoblotting for cleaved caspase 3", "type": "cell-based, Human", "settings": "MD901 (ABC); metformin 2.5mM, Kidrolase 2UI/mL, alone or combined", "procedure": "(§1) The cells are washed in cold 1X PBS then lysis is carried out at 4°C (on ice) for 20 minutes, using a mix containing a High Salt buffer (0.4 M NaCl). 25 mM Hepes pH 7.7, 1.5 mM MgCI 2, 0.2 mM EDTA, 1%NP4O), protease and phosphatase inhibitors (20 mM glycerol phosphate, 0.2 mM Na3VO4, 10mM PNPP, 2 mM DTT, […] and an inhibitor cocktail from Boehringer Company). Whole cell extracts are centrifuged also at 4°C for 10 minutes at 13 000 rpm, the supernatant is transferred to an Eppendorf tube and the proteins are dosed using a protein kit assay (Bio-Rad) and stored at - 80°C. Immunoblotting was performed as previously reported (Authier H et al, 2014). Cleaved caspase 3 and β-actin antibodies are from Cell Signaling Technologies and Sigma, respectively."}, "OCI-LY19 cell line": {"system": "OCI-LY19 cell line", "assay": "Immunoblotting for cleaved caspase 3", "type": "cell-based, Human", "settings": "OCI-LY19 (GCB); metformin 2.5mM, Kidrolase 2UI/mL, alone or combined", "procedure": "as §1"}}, "note": "Counter-ions that a name gives are not always drawn.", "data": [{"smiles": "CN(C)C(=N)N=C(N)N", "note": "[metformin, Metformin hydrochloride]", "values": [{"measurement": "activation of caspase 3 (cleaved caspase 3)", "setting": "MD901 cell line", "value": "not to barely detectable"}, {"measurement": "activation of caspase 3 (cleaved caspase 3)", "setting": "OCI-LY19 cell line", "value": "not to barely detectable"}]}]}
